{"source": "patent US10058562B2", "about": "“Methods of treatment of diseases” (Ampio Pharmaceuticals, Inc., priority 2012, dated 2018)", "key": {"HUVECs": {"system": "HUVECs", "assay": "HUVEC tube formation assay", "conditions": "18 hours"}, "[1]": {"system": "human retinal endothelial cells", "assay": "Actin stress fiber formation (Example 13)", "conditions": "for F-actin staining, danazol alone: 1 μM; for F-actin staining, agent alone: TNFα 1 ng/ml or S1P 1 μM alone, over the time course"}, "[2]": {"system": "Primary human umbilical vein endothelial cells (HUVECs)", "assay": "HUVEC cell proliferation (Celltiter 96 AQueous One)", "assay_type": "cell-based", "experimental": "Primary human umbilical vein endothelial cells (HUVECs) and EGM-2 growth medium were obtained from Cambrex (Walkersville, Md.). The cells were passaged in medium supplemented with 2% fetal calf serum (FCS) in tissue culture flasks at 37° C. and 5% CO2. Subculturing was performed using trypsin when 60-80% confluence was obtained as specified by the supplier.\nCryopreserved ampoules of passage 2 HUVECs were thawed and plated in 96 well tissue culture plates at 5,000 cells/cm^2. […] . In short, medium was aspirated from each well and the cells were washed with 200 μl […] (HBSS) from Cambrex warmed to 37° C. 100 μl diluted celltiter solution (15 μl stock+85 μl EGM-2 containing 0.1% FCS) were added to each well and incubated for an additional 4 hours. Optical density was determined by microplate reader using a 530 nm filter after blank subtraction and data presented as OD±standard deviation. The final concentration of ethanol in the wells was less then 0.2% and had no effect on cell proliferation or viability.\nAll data are presented as representative experiments done in triplicate. […] P<0.05 was considered statistically significant."}, "[3]": {"system": "human retinal endothelial cells", "assay": "Actin stress fiber formation, VEGF (Example 10)", "assay_type": "cell-based", "conditions": "for change of VEGF stress fiber pattern: 30 minutes before VEGF 25 ng/ml", "experimental": ". […] To counter-stain for nuclei, 100 μl of a 3 μM DAPI (4,6-diamidino-2-phenylindole, dilactate (Invitrogen)) solution was added to each well. After 5 minutes, the cells were washed two times with 100 μl PBS."}, "[4]": {"system": "human retinal endothelial cells", "assay": "ECIS resistance (Example 14)", "conditions": "for persistence of ECIS increase: danazol 1.0 μM, S1P 1 μM, alone or in combination", "procedure": "(§1) Electrical resistance was measured using the electric cell-substrate impedance sensing (ECIS) system (ECISZθ, obtained from Applied Biophysics) with 8-well multiple electrode plates (8W10E). […] The fibronectin solution was removed, and 400 μl of EGM-2 culture medium (Lonza) was added to each well. The plates were connected to the ECISZθ system and were electrically stabilized. The EGM-2 medium was aspirated and replaced with 200 μl of EGM-2 culture medium containing 100,000 cells per well. […] The EGM-2 medium was aspirated and replaced with 400 μl of fresh EGM-2 culture medium per well. […] Concentrated solutions of the test compounds in HBSS were prepared and placed in the incubator to equilibrate. […] ECIS (resistance) was monitored for 90 hours."}, "[5]": {"system": "human renal glomerular microvascular endothelial cells", "assay": "ECIS resistance (Example 14)", "conditions": "danazol 1 μM alone", "procedure": "as §1"}, "[6]": {"system": "human renal glomerular microvascular endothelial cells", "assay": "ECIS resistance (Example 15)", "conditions": "1 μM", "procedure": "Electrical resistance was measured using the electric cell-substrate impedance sensing (ECIS) system (ECISZθ, obtained from Applied Biophysics) with 8-well multiple electrode plates (8W10E). […] The fibronectin solution was removed, and 200 μl of EGM-2 culture medium (Lonza) was added to each well. The plates were connected to the ECISZθ system and were electrically stabilized. The EGM-2 medium was aspirated and replaced with 200 μl of EGM-2 culture medium containing 40,000 passage 6 cells per well. […] The EGM-2 medium was aspirated and replaced with 200 μl of fresh EGM-2 culture medium per well. […] The EGM-2 medium was aspirated and replaced with 200 μl of fresh EGM-2 culture medium without dexamethasone per well. […] Finally, the EGM-2 medium was aspirated and replaced with 200 μl of fresh EGM-2 culture medium without dexamethasone per well. […] Concentrated solutions of the test compounds in HBSS were prepared and placed in the incubator to equilibrate. […] ECIS (resistance) was monitored for 90 hours."}, "[7]": {"system": "human retinal endothelial cells", "assay": "Actin stress fiber formation, TNFα (Example 9)", "conditions": "30 minutes", "procedure": "Then, the medium was removed and replaced with 200 μl of IMDM medium supplemented with 0.1% fetal bovine serum (all from Lonza), and the cells were cultured under these growth factor and serum starved conditions for one hour to suppress actin polymerization. […] Immediately following addition of these compounds, TNFα (final concentration of 50 ng/ml) was added. […] All wells were then washed two times with 100 μl PBS. The cells were permeabilized using a 0.1% Triton X-100 in PBS for 5 minutes. All wells were then washed two times with 100 μl PBS, and 50 μl of a 1:40 dilution of rhodamine-phalloidin (Invitrogen) in PBS was added to the cells to stain for F-actin and left on the cells for 20 minutes at room temperature. All wells were then washed two times with 100 μl PBS."}, "[8]": {"system": "human umbilical vein endothelial cells", "assay": "TER of endothelial cell monolayers (Example 6)", "conditions": "1.0 μM", "procedure": "(§2) Assays were also performed in the same manner using passage 8 human brain endothelial cells and passage 8 human umbilical vein endothelial cells.\n(§3) An initial TER measurement was taken for each insert using EVOM^2 voltohmmeter connected to an STX100 electrode (both from World Precision Instruments). […] All data are presented as TER measurements/cm^2 of insert with TER of blank inserts subtracted."}, "[9]": {"system": "human retinal endothelial cells", "assay": "TER of endothelial cell monolayers (Example 6)", "conditions": "1.0 μM", "procedure": "as §2, §3"}, "[10]": {"system": "patients with diabetic macular edema (DME)", "assay_type": "in vivo, human", "excerpt": "Included were patients with DME and a central subfield retinal thickness of 300 μm or greater. A total of 34 patients constituted the safety set population. The efficacy evaluable population (n=23) was composed of patients from the safety set who completed 80% or greater of study medications at 4 weeks of treatment. The primary endpoint was change in central subfield retinal thickness from baseline to 12 weeks of treatment, and the secondary endpoints were change from baseline in retinal volume and Early Treatment Diabetic Retinopathy Study (ETDRS) best corrected visual acuity (BCVA) at week 12 of treatment. […] All treatments were administered orally twice a day."}, "[11]": {"system": "Retinal endothelial cells", "assay": "F-actin (phalloidin) staining of endothelial cells", "conditions": "barrier-enhancing concentrations", "source_text": "Retinal endothelial cells stained with rhodamine conjugated phalloidin."}, "endothelial cells": {"system": "endothelial cells", "assay": "TEER across endothelial cell monolayers on transwell inserts", "conditions": "barrier-enhancing concentrations, within minutes of exposure", "source_text": "TEER measured across monolayers of endothelial cells grown on transwell inserts. Higher resistance equals greater barrier integrity."}, "[12]": {"system": "human brain endothelial cells", "assay": "TER of endothelial cell monolayers (Example 6)", "conditions": "1.0 μM", "procedure": "as §2, §3"}, "[13]": {"system": "human renal glomerular microvascular endothelial cells", "assay": "Actin stress fiber formation (Example 13)", "conditions": "for F-actin staining, danazol alone: 1 μM; for F-actin staining, agent alone: TNFα 1 ng/ml or S1P 1 μM alone, over the time course"}}, "note": "Where two headings read alike, the source gives them in different places."}
{"compound": "C#C[C@]1(O)CC[C@H]2[C@@H]3CCC4=Cc5oncc5C[C@]4(C)[C@H]3CC[C@@]21C", "note": "[Danazol, 17α-pregna-2,4-dien-20-yno[2,3-d]-isoxazol-17β-ol]", "values": [{"measurement": "effect on tube formation", "setting": "HUVECs; 1 μM", "value": "no effect"}, {"measurement": "effect on tube formation", "setting": "HUVECs; 10 μM", "value": "no effect"}, {"measurement": "F-actin staining, danazol alone", "setting": "[1]; 15 minutes", "value": "perinuclear staining"}, {"measurement": "F-actin staining, danazol alone", "setting": "[1]; 3 hours", "value": "diffuse staining throughout the cells with ruffled edges on many of the cells"}, {"measurement": "F-actin staining, danazol alone", "setting": "[1]; 24 hours", "value": "staining similar to untreated controls"}, {"measurement": "OD (celltiter proliferation assay)", "setting": "[2]; 24 hours, 10 μM, nil 0.414±0.06", "value": "0.288±0.037"}, {"measurement": "OD (celltiter proliferation assay)", "setting": "[2]; 24 hours, 100 μM, nil 0.414±0.06", "value": "0.162±0.017"}, {"measurement": "OD (celltiter proliferation assay)", "setting": "[2]; 48 hours, 1 μM, nil 0.629±0.095", "value": "0.378±0.037"}, {"measurement": "OD (celltiter proliferation assay)", "setting": "[2]; 48 hours, 10 μM, nil 0.629±0.095", "value": "0.241±0.012"}, {"measurement": "OD (celltiter proliferation assay)", "setting": "[2]; 48 hours, 100 μM, nil 0.629±0.095", "value": "0.19±0.033"}, {"measurement": "OD (celltiter proliferation assay)", "setting": "[2]; 72 hours, 0.1 μM, nil 1.113±0.054", "value": "0.798±0.037"}, {"measurement": "OD (celltiter proliferation assay)", "setting": "[2]; 72 hours, 1 μM, nil 1.113±0.054", "value": "0.484±0.022"}, {"measurement": "OD (celltiter proliferation assay)", "setting": "[2]; 72 hours, 10 μM, nil 1.113±0.054", "value": "0.229±0.016"}, {"measurement": "OD (celltiter proliferation assay)", "setting": "[2]; 72 hours, 100 μM, nil 1.113±0.054", "value": "0.156±0.018"}, {"measurement": "change of VEGF stress fiber pattern", "setting": "[3]; 0.1 μM", "value": "made the stress fibers less pronounced and some diffuse staining appeared"}, {"measurement": "change of VEGF stress fiber pattern", "setting": "[3]; 1.0 μM", "value": "showed fewer thick stress fibers, but focal points were seen on contact surfaces"}, {"measurement": "change of VEGF stress fiber pattern", "setting": "[3]; 10.0 μM", "value": "showed strong stress fiber development with focal points"}, {"measurement": "F-actin staining pattern", "setting": "[3]; 10.0 μM, no VEGF", "value": "there was no longer any diffuse staining, and stress fiber development and focal points were seen"}, {"measurement": "start of ECIS increase compared to untreated cells, after treatment", "setting": "[4]; 1.0 μM", "value": "1.5 to 2.0", "unit": "h"}, {"measurement": "persistence of ECIS increase", "setting": "[4]", "value": 5, "unit": "h"}, {"measurement": "period of greatest ECIS increase", "setting": "[5]", "value": "60 to 90", "unit": "h"}, {"measurement": "persistence of ECIS increase", "setting": "[6]", "value": "about 90 hours"}, {"measurement": "start of ECIS increase compared to untreated cells", "setting": "[6]; medium without dexamethasone", "value": "about 3 hours"}, {"measurement": "F-actin staining pattern", "setting": "[7]; 10.0 μM", "value": "stress fibers with multiple focal points were detected"}, {"measurement": "stress fiber development with TNFα", "setting": "[7]; TNFα 50 ng/ml, danazol 0.1 μM or 10 μM, LY294002 10 μM", "value": "decreased the number of cells exhibiting stress fiber development with TNFα"}, {"measurement": "TER", "setting": "[8]; 0 Hours, per cm^2 of insert, blank subtracted, None 82.3", "value": 70.2}, {"measurement": "TER", "setting": "[8]; 24 Hours, None 217.2", "value": 246.0}, {"measurement": "TER", "setting": "[8]; 48 Hours, None 276.3", "value": 364.1}, {"measurement": "TER", "setting": "[8]; 72 Hours, None 226.8", "value": 270.7}, {"measurement": "TER", "setting": "[8]; 144 Hours, None 227.3", "value": 286.4}, {"measurement": "TER", "setting": "[9]; 0 Hours, per cm^2 of insert, blank subtracted, None 32.3", "value": 21.7}, {"measurement": "TER", "setting": "[9]; 24 Hours, None 96.0", "value": 132.3}, {"measurement": "TER", "setting": "[9]; 48 Hours, None 144.4", "value": 182.3}, {"measurement": "TER", "setting": "[9]; 72 Hours, None 148.0", "value": 217.7}, {"measurement": "TER", "setting": "[9]; 144 Hours, None 219.7", "value": 234.8}, {"measurement": "effect on retinal thickness versus baseline BMI", "setting": "[10]; 10 mg dose", "value": "became less significant with increasing baseline BMI"}, {"measurement": "effect on retinal thickness versus baseline BMI", "setting": "[10]; 30 mg danazol dose", "value": "became more significant with increasing baseline BMI"}, {"measurement": "patients with a clinically relevant change in OCT after 12 weeks of treatment", "setting": "[10]; 30 mg danazol, placebo 2 of 7 patients", "value": "6/7"}, {"measurement": "Retinal volume compared with placebo", "setting": "[10]; 15-mg group, P=0.05", "value": "decreased"}, {"measurement": "subjects with a significant decrease in retinal thickness (more than 11%) at 12 weeks", "setting": "[10]; DME patients, oral 15-mg dose (15 mg twice daily), 6 of 7 patients, placebo 29%", "value": 86, "unit": "%"}, {"measurement": "subjects with BCVA improvement of at least 1 category (ICD-9-CM vision loss)", "setting": "[10]; all patients treated with danazol, placebo 14%", "value": 47, "unit": "%"}, {"measurement": "ocular hypertension", "setting": "[10]; in vivo", "value": "No ocular hypertension was detected"}, {"measurement": "treatment-related adverse events (number)", "setting": "[10]; in vivo", "value": "Three"}, {"measurement": "F-actin staining", "setting": "[11]; within minutes of exposure", "value": "f-actin cortical ring formation"}, {"measurement": "stress fiber formation upon stimulation", "setting": "[11]; stimulation with TNF-a or thrombin", "value": "counteracted the formation of stress fibers"}, {"measurement": "endothelial barrier function (TEER)", "setting": "endothelial cells", "value": "increases in endothelial barrier function"}, {"measurement": "TER", "setting": "[12]; 0 Hours, per cm^2 of insert, blank subtracted, None 41.4", "value": 32.3}, {"measurement": "TER", "setting": "[12]; 24 Hours, None 115.7", "value": 139.9}, {"measurement": "TER", "setting": "[12]; 48 Hours, None 176.3", "value": 188.4}, {"measurement": "TER", "setting": "[12]; 72 Hours, None 154.0", "value": 149.5}, {"measurement": "TER", "setting": "[12]; 144 Hours, None 151.5", "value": 125.8}, {"measurement": "F-actin staining, danazol alone", "setting": "[13]; 15 minutes", "value": "perinuclear staining"}, {"measurement": "F-actin staining, danazol alone", "setting": "[13]; 3 hours", "value": "diffuse staining throughout the cells with ruffled edges on many of the cells"}, {"measurement": "F-actin staining, danazol alone", "setting": "[13]; 24 hours", "value": "staining similar to untreated controls"}]}
{"compound": "CCCCCCCCCCCCC/C=C/[C@@H](O)[C@@H](N)COP(=O)(O)O", "note": "[S1P, sphingosine-1 phosphate]", "values": [{"measurement": "F-actin staining, agent alone", "setting": "[1]", "value": "showed actin cortical rings"}, {"measurement": "start of ECIS increase compared to untreated cells, after treatment", "setting": "[4]; S1P 1 μM alone", "value": "≤ 0.25", "unit": "h"}, {"measurement": "persistence of ECIS increase", "setting": "[4]", "value": "about 3 hours"}, {"measurement": "F-actin staining, agent alone", "setting": "[13]", "value": "showed actin cortical rings"}]}
{"compound": "TNFα", "values": [{"measurement": "F-actin staining, agent alone", "setting": "[1]", "value": "stress fibers were seen at all times"}, {"measurement": "stress fiber development, stimulus alone", "setting": "[7]; TNFα 50 ng/ml", "value": "led to strong stress fiber development with intensely staining focal points"}, {"measurement": "F-actin staining, agent alone", "setting": "[13]", "value": "stress fibers were seen at all times"}]}
{"compound": "VEGF", "values": [{"measurement": "stress fiber development, stimulus alone", "setting": "[3]; VEGF 25 ng/ml, 30 minutes", "value": "strong stress fiber development"}]}
